Experimental data as given in the supplement of paper PMC8149375.

Experiments:
Conditions in all cases: treatment: drug alone; 5 days
[1] = tested on: 769-P; assay: GI50, drug alone; higher = less potent
Description: (§1)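 Primary HTS: 8 RCC cell lines treated with 8 doses (up to 10 uM) of each library drug alone for 5 days; viability read by CellTiter-Glo and normalised to DMSO. GI50 was fitted with XLfit (4-parameter), AUC is the area under the dose-response curve, and minimum viability is the lowest fraction of DMSO viability across doses.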

[2] = tested on: 786-O; assay: GI50, drug alone; higher = less potent
Description: as §1

[3] = tested on: A498; assay: GI50, drug alone; higher = less potent
Description: as §1

[4] = tested on: ACHN; assay: GI50, drug alone; higher = less potent
Description: as §1

[5] = tested on: CAKI-1; assay: GI50, drug alone; higher = less potent
Description: as §1

[6] = tested on: SN12C; assay: GI50, drug alone; higher = less potent
Description: as §1

[7] = tested on: TK-10; assay: GI50, drug alone; higher = less potent
Description: as §1

[8] = tested on: UO-31; assay: GI50, drug alone; higher = less potent
Description: as §1

[9] = tested on: 769-P; assay: minimum viability across doses, drug alone, relative to DMSO (fraction); higher = less growth inhibition
Description: as §1

[10] = tested on: 786-O; assay: as above
Description: as §1

[11] = tested on: A498; assay: as above
Description: as §1

[12] = tested on: ACHN; assay: as above
Description: as §1

[13] = tested on: CAKI-1; assay: as above
Description: as §1

[14] = tested on: SN12C; assay: as above
Description: as §1

[15] = tested on: TK-10; assay: as above
Description: as §1

[16] = tested on: UO-31; assay: as above
Description: as §1

[17] = tested on: 769-P; assay: AUC of dose-response viability curve, drug alone (arbitrary (AUC of normalised viability)); higher = less growth inhibition
Description: as §1

[18] = tested on: 786-O; assay: as above
Description: as §1

[19] = tested on: A498; assay: as above
Description: as §1

[20] = tested on: ACHN; assay: as above
Description: as §1

[21] = tested on: CAKI-1; assay: as above
Description: as §1

[22] = tested on: SN12C; assay: as above
Description: as §1

[23] = tested on: TK-10; assay: as above
Description: as §1

[24] = tested on: UO-31; assay: as above
Description: as §1

| Structure (SMILES) | GI50, drug alone [1] [µM] | GI50, drug alone [2] [µM] | GI50, drug alone [3] [µM] | GI50, drug alone [4] [µM] | GI50, drug alone [5] [µM] | GI50, drug alone [6] [µM] | GI50, drug alone [7] [µM] | GI50, drug alone [8] [µM] | minimum viability across doses [9] | minimum viability across doses [10] | minimum viability across doses [11] | minimum viability across doses [12] | minimum viability across doses [13] | minimum viability across doses [14] | minimum viability across doses [15] | minimum viability across doses [16] | AUC of dose-response viability curve [17] | AUC of dose-response viability curve [18] | AUC of dose-response viability curve [19] | AUC of dose-response viability curve [20] | AUC of dose-response viability curve [21] | AUC of dose-response viability curve [22] | AUC of dose-response viability curve [23] | AUC of dose-response viability curve [24] |
| --- | --- | --- | --- | --- | --- | --- | --- | --- | --- | --- | --- | --- | --- | --- | --- | --- | --- | --- | --- | --- | --- | --- | --- | --- |
| Cc1cc2c(F)c(Oc3ncnn4cc(OC[C@@H](C)OC(=O)[C@H](C)N)c(C)c34)ccc2[nH]1 | > 10 | 8.62 | > 10 | 8.45 | > 10 | > 10 | > 10 | 9.72 | 0.818 | 0.358 | 0.898 | 0.417 | 0.605 | 0.75 | 0.637 | 0.458 | 3.33 | 2.99 | 3.68 | 2.61 | 3.29 | 3.35 | 3.26 | 3.77 |
| COc1cc2c(Oc3ccc(NC(=O)C4(C(=O)Nc5ccc(F)cc5)CC4)cc3F)ccnc2cc1OCCCN1CCOCC1 | 2.91 | 1.32 | 3.26 | 1.14 | 0.575 | 1.2 | 1.07 | 2.91 | 0.0122 | 0.00765 | 0.0481 | 0.00485 | 0.00629 | 0.0104 | 0.00697 | 0.0119 | 2.75 | 2.39 | 3.15 | 2.6 | 2.12 | 2.34 | 2.37 | 3.04 |
| NC(=O)c1ccc(N(C(N)=O)c2c(F)cccc2F)nc1-c1ccc(F)cc1F [VX-702] | > 10 | > 10 | > 10 | > 10 | > 10 | > 10 | > 10 | > 10 | 0.946 | 0.661 | 0.924 | 0.656 | 0.76 | 0.944 | 0.674 | 0.806 | 3.44 | 2.9 | 3.72 | 3.03 | 3.27 | 3.56 | 2.79 | 3.75 |
| CC[C@H](Nc1ncnc2[nH]cnc12)c1nc2cccc(F)c2c(=O)n1-c1ccccc1 [CAL-101 (GS-1101)] | > 10 | > 10 | > 10 | > 10 | > 10 | > 10 | > 10 | > 10 | 0.786 | 0.613 | 0.979 | 0.64 | 0.633 | 0.777 | 0.701 | 0.926 | 3.45 | 3.15 | 4.09 | 3.17 | 3.06 | 3.2 | 3.12 | 3.87 |
| Cc1csc(-c2nnc(Nc3ccc(Oc4ncccc4-c4ccnc(N)n4)cc3)c3ccccc23)c1 [AMG 900] | 0.109 | 0.0169 | > 10 | 0.171 | 0.672 | 4.57 | > 10 | > 10 | 0.287 | 0.0401 | 0.776 | 0.231 | 0.425 | 0.479 | 0.561 | 0.875 | 1.64 | 0.822 | 4.67 | 1.72 | 2.02 | 2.49 | 2.41 | 3.73 |
| Nc1cccc2c1C(=O)N(C1CCC(=O)NC1=O)C2=O (configuration not stated) [Pomalidomide] | > 10 | 0.00888 | > 10 | > 10 | > 10 | > 10 | > 10 | > 10 | 0.887 | 0.424 | 0.732 | 0.85 | 0.924 | 0.884 | 0.818 | 1.01 | 3.35 | 2 | 3.01 | 3.14 | 3.49 | 3.38 | 3.12 | 3.85 |
| Cc1[nH]c(/C=C2\C(=O)Nc3ccc(S(=O)(=O)Cc4c(Cl)cccc4Cl)cc32)c(C)c1C(=O)N1CCC[C@@H]1CN1CCCC1 | 4.02 | 4.16 | 8.15 | 3.83 | 3.83 | 4.02 | 4.44 | > 10 | 0.00582 | 0.0112 | 0.0127 | 0.00233 | 0.00618 | 0.00551 | 0.00282 | 0.0156 | 2.89 | 2.86 | 3.88 | 3.18 | 3.17 | 2.93 | 3.12 | 4.41 |
| CS(=O)(=O)N1CCN(Cc2cc3nc(-c4cccc5[nH]ncc45)nc(N4CCOCC4)c3s2)CC1 [GDC-0941] | 1.54 | 1.53 | 6.94 | 0.69 | 0.563 | 1.94 | 0.66 | 2.66 | 0.221 | 0.254 | 0.397 | 0.264 | 0.149 | 0.323 | 0.207 | 0.227 | 2.65 | 2.46 | 3.39 | 2.41 | 2.28 | 2.56 | 2.27 | 3.82 |
| COc1ccc(-c2ccc3ncc4c(c3c2)n(-c2ccc(N3CCNCC3)c(C(F)(F)F)c2)c(=O)n4C)cn1.O=C(O)/C=C\C(=O)O [NVP-BGT226] | 0.0362 | 0.0129 | 0.0291 | 0.0149 | 0.0272 | 0.0158 | 0.0202 | 0.0113 | 0.00969 | 0.00447 | 0.0133 | 0.00135 | 0.00344 | 0.00358 | 0.00394 | 0.00819 | 1.22 | 0.728 | 1.21 | 0.785 | 1.03 | 0.857 | 0.903 | 0.578 |
| COC[C@H]1OC(=O)c2coc3c2[C@@]1(C)C1=C(C3=O)[C@@H]2CCC(=O)[C@@]2(C)C[C@@H]1OC(C)=O [Wortmannin] | > 10 | 0.0493 | 0.0833 | 0.0981 | 2.42 | 0.0835 | > 10 | > 10 | 0.55 | 0.00957 | 0.421 | 0.426 | 0.301 | 0.387 | 0.725 | 0.643 | 3.15 | 1.99 | 3.03 | 2.78 | 2.45 | 2.78 | 3.1 | 2.58 |
| O=C1CCC(N2C(=O)c3ccccc3C2=O)C(=O)N1 (configuration not stated) [Thalidomide] | > 10 | 0.288 | > 10 | > 10 | > 10 | > 10 | > 10 | > 10 | 0.949 | 0.0165 | 1.05 | 0.802 | 0.932 | 0.88 | 0.824 | 1.21 | 3.56 | 2 | 4.19 | 3.18 | 3.56 | 3.37 | 3.12 | 4.89 |
| Nc1cccc(-c2cc3c(Oc4cccc(O)c4)ncnc3[nH]2)c1 [TWS119] | 3.63 | 5.04 | > 10 | 2.8 | 4.56 | 5.5 | 2.65 | 8.62 | 0.0987 | 0.154 | 0.572 | 0.153 | 0.113 | 0.295 | 0.0991 | 0.0946 | 2.93 | 3.03 | 3.93 | 2.77 | 3.09 | 2.86 | 2.75 | 4.2 |
| CNC(=O)c1ccccc1Sc1ccc2c(/C=C/c3ccccn3)n[nH]c2c1 [Axitinib] | 6.97 | > 10 | > 10 | 4.7 | 2.87 | 5.6 | > 10 | > 10 | 0.436 | 0.661 | 0.779 | 0.287 | 0.367 | 0.375 | 0.748 | 0.672 | 3.08 | 3.02 | 4.06 | 3.13 | 2.86 | 3.06 | 3.07 | 4.27 |
| CN1CC[C@H](c2c(O)cc(O)c3c(=O)cc(-c4ccccc4Cl)oc23)[C@H](O)C1.Cl [Flavopiridol hydrochloride] | 0.225 | 0.0369 | 0.262 | 0.0707 | 0.17 | 0.174 | 0.14 | 0.125 | 0.0149 | 0.00454 | 0.0135 | 0.00461 | 0.0716 | 0.0105 | 0.14 | 0.0096 | 1.84 | 0.837 | 1.92 | 1.27 | 1.85 | 1.63 | 1.57 | 1.74 |
| CCOc1cc2ncc(C#N)c(Nc3ccc(F)c(Cl)c3)c2cc1NC(=O)/C=C/CN(C)C [Pelitinib (EKB-569)] | 0.357 | 0.589 | 2.19 | 0.0629 | 0.209 | 0.995 | 0.161 | 1.08 | 0.0352 | 0.00469 | 0.0185 | 0.00498 | 0.0302 | 0.0102 | 0.01 | 0.027 | 2.02 | 2.08 | 2.96 | 1.41 | 1.87 | 2.38 | 1.75 | 3.24 |
| COc1ccc(-c2ccc3c(N4CCOCC4)nc(N4C[C@@H](C)O[C@@H](C)C4)nc3n2)cc1CO | 2.12 | 0.772 | 4.9 | 0.592 | 1.08 | 1.36 | 0.724 | 1.63 | 0.214 | 0.26 | 0.379 | 0.141 | 0.174 | 0.223 | 0.222 | 0.012 | 2.66 | 2.03 | 3.62 | 2.23 | 2.53 | 2.49 | 2.23 | 2.98 |
| C[C@]1(O)C[C@@H](c2nc(-c3ccc4ccc(-c5ccccc5)nc4c3)c3c(N)nccn32)C1 [Linsitinib (OSI-906)] | > 10 | > 10 | > 10 | > 10 | > 10 | > 10 | > 10 | > 10 | 0.878 | 0.663 | 0.972 | 0.495 | 0.562 | 0.915 | 0.651 | 0.904 | 3.19 | 2.85 | 4.2 | 3.06 | 2.99 | 3.35 | 2.79 | 4.26 |
| c1ccc2c(-c3cnn4cc(-c5ccc(N6CCNCC6)cc5)cnc34)ccnc2c1 | 2.6 | 8.26 | 8.21 | 2.01 | 1.63 | 2.8 | 7.73 | 7.44 | 0.00246 | 0.0032 | 0.00414 | 0.00139 | 0.00218 | 0.00261 | 0.00522 | 0.00507 | 2.86 | 3.55 | 3.76 | 2.68 | 2.96 | 2.88 | 2.64 | 6.11 |
